Source: patent publication US20020010317A1, “Method for generating immunogens that elicit neutralizing antibodies against fusion-active regions of HIV envelope proteins” (priority 2000, published 2002)

Tests used:
[1] = system: HIV-1 envelope mediated cell-cell fusion; details: cited from earlier work
gp41 (HXB2 strain) = gp41 (HXB2 strain) (Human immunodeficiency virus type 1 group M subtype B, UniProt P04578)
[2] = system: divergent HIV-1 virus isolates; test: immunization of guinea pigs with P-18, neutralizing antibody response; type: in vivo, guinea pig; details: two of three animals; 100 μg intramuscularly in Freund's adjuvant
Protocol: Antibody binding assays can be used to determine the ability of the immunogen vaccines to generate an immune response to various forms of envelope (native vs. denatured). Virus neutralization assays can be used to characterize the antibody response raised against the gp41 domains. The most encouraging results have been from animals immunized with the peptide P-18 modeling the C-helix entry domain (amino acid residues 643-678 of gp41 ).
Guinea pigs were immunized intramuscularly with 100 μg of P-18 formulated in either Freund's complete (prime) or incomplete (boost) adjuvant. Animals were immunized on days 0, 21, 34, 48 and 62. Blood was collected on days 44,58 and 72. In our initial screen, sera at a 1:10 dilution were tested for the ability to inhibit virus-induced cell killing. In these assays, two of the three animals receiving the P-18 peptide (guinea pigs 233 and 234) were able to block the cytopathic effects of a pair of prototypic HIV-1 isolates. Against the MN isolate, >80% protection was achieved, while against the RF isolate, protection was >50%.

Chain of gp41 (HXB2 strain) (P04578 512-856): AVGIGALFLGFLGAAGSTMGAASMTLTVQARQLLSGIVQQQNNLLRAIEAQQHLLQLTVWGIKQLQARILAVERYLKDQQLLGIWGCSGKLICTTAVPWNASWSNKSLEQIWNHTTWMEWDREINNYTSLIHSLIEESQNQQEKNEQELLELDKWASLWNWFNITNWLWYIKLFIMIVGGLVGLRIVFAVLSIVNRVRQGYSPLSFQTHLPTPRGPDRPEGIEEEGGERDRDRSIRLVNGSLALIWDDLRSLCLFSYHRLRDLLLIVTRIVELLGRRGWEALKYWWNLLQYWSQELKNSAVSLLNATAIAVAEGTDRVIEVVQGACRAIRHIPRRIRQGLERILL

NNLLRAIEAQQHLLQLTVWQIKQLQARILAVERYLKDQ (NNLLRAIEAQQHLLQLTVWGIKQLQARILAVERYLKDQ) [DP-107]
level inhibiting cell-cell fusion [1]: sub-μg/ml levels

P-18-GGG-YPYDVPDYAGPG [P-18HA]
binding to and co-immunoprecipitation of gp41 (gp41 (HXB2 strain)): bound to and co-immunoprecipitated gp41

enfuvirtide
neutralizing antibody response in immunized animals [2]: exhibited a neutralizing antibody response against divergent virus isolates | concentration inhibiting envelope mediated cell-cell fusion ([1]; concentrations as low as): about 1 ng/ml
